Source: patent US9370570B2, “Polychlorinated biphenyls and squalene-containing adjuvants” (priority 2007, dated 2016)

What was measured:
[1] = WHO 2005 TEF values for PCBs in humans; fraction of the toxicity of 2,3,7,8-TCDD dioxin (reference value 1); cited from earlier work
[2] = levels of seven dioxins and ten furans in squalene samples, as TEQs; settings: WHO 2005 TEFs; + = 1,2,3,4,6,7,8-HpCDD
Experimental: In addition to measuring PCB content, levels of seven dioxins and ten furans were measured. […] TEQs from PCBs, dioxins and furans for these samples were as follows, measured in pg/g according to WHO 2005 TEFs: […]

Clc1cc2c(cc1Cl)Oc1cc(Cl)c(Cl)cc1O2 [2,3,7,8-TCDD, reference compound]
TEF (toxic equivalency factor) [1]: 1

Clc1ccc(-c2cc(Cl)c(Cl)cc2Cl)cc1Cl [PCB #118]
TEF (toxic equivalency factor) [1]: 0.00003

Clc1ccc(-c2cc(Cl)c(Cl)c(Cl)c2Cl)cc1 [PCB #114]
TEF (toxic equivalency factor) [1]: 0.00003

Clc1cc(-c2ccc(Cl)c(Cl)c2Cl)cc(Cl)c1Cl [PCB #157]
TEF (toxic equivalency factor) [1]: 0.00003

Clc1cc(Cl)c(-c2cc(Cl)c(Cl)c(Cl)c2)cc1Cl [PCB #167]
TEF (toxic equivalency factor) [1]: 0.00003

Clc1cc(Cl)c(-c2cc(Cl)c(Cl)c(Cl)c2Cl)cc1Cl [PCB #180]
TEF (toxic equivalency factor) [1]: 0.00001

Clc1ccc(-c2cc(Cl)c(Cl)c(Cl)c2Cl)cc1Cl [PCB #156]
TEF (toxic equivalency factor) [1]: 0.00003

Clc1ccc(-c2ccc(Cl)c(Cl)c2)cc1Cl [PCB #77, 3,3′,4,4′-tetrachlorobiphenyl]
TEF (toxic equivalency factor) [1]: 0.0001

Clc1ccc(-c2cc(Cl)c(Cl)c(Cl)c2)cc1 [PCB #81, 3,4,4′,5-tetrachlorobiphenyl]
TEF (toxic equivalency factor) [1]: 0.0003

Clc1ccc(-c2cc(Cl)c(Cl)c(Cl)c2)c(Cl)c1 [PCB #123]
TEF (toxic equivalency factor) [1]: 0.00003

Clc1ccc(-c2ccc(Cl)c(Cl)c2Cl)cc1Cl [PCB #105]
TEF (toxic equivalency factor) [1]: 0.00003

Clc1cc(-c2cc(Cl)c(Cl)c(Cl)c2)cc(Cl)c1Cl [PCB #169, 3′,4,4′,5,5′-hexachlorobiphenyl]
TEF (toxic equivalency factor) [1]: 0.03

CC(C)=CCCC(C)=CCCC(C)=CCCC=C(C)CCC=C(C)CCC=C(C)C [squalene, 2,6,10,15,19,23-hexamethyl-2,6,10,14,18,22-tetracosahexaene]
TEQ from Dioxins [2]: 28.158 ^+ pg/g

Clc1cc(-c2cc(Cl)c(Cl)c(Cl)c2Cl)cc(Cl)c1Cl [PCB #189]
TEF (toxic equivalency factor) [1]: 0.00003

Clc1ccc(-c2cc(Cl)c(Cl)c(Cl)c2)cc1Cl [PCB #126, 3,3′,4,4′,5-pentachlorobiphenyl]
TEF (toxic equivalency factor) [1]: 0.1
